Among the data in patent publication US20110312945A1, “CRTH2 MODULATORS” (priority 2008, published 2011) are IC50 values, retold here.

The target in assay [1] is T1, CRTH2 (Homo sapiens, UniProt Q9Y5Y4).
T1 construct: polymorphonuclear cells (0.5 ml; 10^6/ml cells) in PBS containing 0.9 mM CaCl2 and 0.5 mM MgCl2; endogenous in cells; host or cells: polymorphonuclear cells (eosinophils gated by flow cytometry)
T1 sequence (Q9Y5Y4 1-395): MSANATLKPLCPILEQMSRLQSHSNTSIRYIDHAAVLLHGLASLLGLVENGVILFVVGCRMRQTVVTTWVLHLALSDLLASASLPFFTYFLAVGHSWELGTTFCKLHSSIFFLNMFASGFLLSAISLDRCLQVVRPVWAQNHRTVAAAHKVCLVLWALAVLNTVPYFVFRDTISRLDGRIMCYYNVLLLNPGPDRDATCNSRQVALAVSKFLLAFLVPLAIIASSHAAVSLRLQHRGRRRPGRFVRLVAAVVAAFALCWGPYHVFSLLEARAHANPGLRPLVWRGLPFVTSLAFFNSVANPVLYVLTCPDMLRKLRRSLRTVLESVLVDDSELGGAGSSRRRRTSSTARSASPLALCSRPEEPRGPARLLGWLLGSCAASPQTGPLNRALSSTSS
The experiment in a line: DPBS CD11b Antagonist Assay. The note with it: polymorphonuclear cells in PBS, eosinophil CD11b expression, challenge with 15R-Methyl-PGD2 (10 nM). It is filed as cell-based. As for the experimental part: DPBS CD11b Antagonist Assay. The potential CRTH2 antagonist activity of certain compounds was tested using a CD11b expression assay using essentially the method described by Monneret et al. (J Pharmacol Exp Ther 304:349-55, 2003). Briefly, polymorphonuclear cells (0.5 ml; 10^6/ml cells) in PBS containing 0.9 mM CaCl2 and 0.5 mM MgCl2) were preincubated with various concentrations of test compounds at room temperature for 10 minutes before they were challenged with the agonist 15R-Methyl-PGD2 (10 nM). The incubations were terminated by the addition of ice-cold FACSFlow (BD Biosciences; Cat# 342003) and centrifugation (400 g for 5 minutes at 4° C.). The cells were then incubated for 30 minutes at 4° C. with a mixture of PE-labeled mouse anti-human VLA-4 (5 μl; BD Biosciences) and FITC-labeled mouse anti-human CD11b (10 μl; Beckman Coulter). The cells were then incubated with Optilyse C (0.25 ml; Beckman Coulter) for 15 minutes, centrifuged, and then fixed in PBS (0.4 ml; calcium and magnesium free) containing 1% formaldehyde. The distribution of fluorescence intensities among 60,000 cells was measured by flow cytometry. Eosinophils were gated out on the basis of their granularity (high side scatter) and labeling with VLA-4 (PE fluorescence). CD11b was then measured in the eosinophil region on the basis of fluorescence due to FITC. All data were corrected for the value obtained for the corresponding isotope control antibody.

In assay [2] the target is T1, CRTH2. The assay is described as follows: Human Whole Blood CD11b Antagonist Assay. It is filed as cell-based. The note with it: eosinophil CD11b expression, challenge with 15R-Methyl-PGD2 (10 nM). Here is the method:
Human Whole Blood CD11b Antagonist Assay (modified from Nicholson, et al. Pulmonary Pharmacology and Therapeutics: 20 (2007); 52-59). The potential CRTH2 antagonist activity of certain compounds was tested in human whole blood using an assay that tests the ability of the compounds to block the CD11b expression in eosinophils by 15-R-methyl-PGD2. A CRTH2 antagonist should block CD11b expression by subsequently added 15-Methyl-PGD2. Human whole blood (200 μL) was incubated at 37° C. for 10 minutes in the presence of various concentrations of test compounds before being challenged with the agonist 15R-Methyl-PGD2 (10 nM). Reactions were terminated by the addition of ice-cold PBS+0.5% BSA+2 mMEDTA (1 mL) and centrifugation (300×g for 5 minutes at 4° C.) Cells were then incubated at 4° C. for 10 min in the presence of human IgG. Cells were then incubated for 30-45 min with a mixture of PE-Cy5-labeled mouse anti-human CD16 (10 ul; BD Biosciences) and FITC-labeled mouse anti-human CD11b (10 μL; Beckman Coulter.) After rinsing (1 mL ice-cold PBS+0.5% BSA+2 mMEDTA), red blood cells were lysed by the addition of 1 mL ice-cold H2O to the cell pellet for 30 sec-1 min immediately followed by the addition of 3.5% NaCl (300 μL.) Cells were then rinsed (2x−1 ml ice cold PBS+0.5% BSA+2 mMEDTA) and fixed in PBS containing 1% formaldehyde. The distribution of fluorescence intensities was measured by flow cytometry. Eosinophils were gated out on the basis of their granularity (high side scatter) and absence of CD-16. CD11b was then measured on this eosinophil population on the basis of fluorescence due to FITC.

pIC50: −log10 of the molar value. Where only a bound is given, the exact number is not on record here.

Usually pIC50 stands for −log10 of the IC50, conventionally taken in molar units. Low values mean a high IC50, high ones a low IC50. On to `Cc1c(Sc2ccc(S(=O)(=O)N3CCCC3)cc2)c2c(n1CC(=O)O)CCC(C)(C)C2` [Example I-38, 2-(2,5,5-trimethyl-3-(4-(pyrrolidin-1-ylsulfonyl)phenylthio)-4,5,6,7-tetrahydro-1H-indol-1-yl)acetic acid], for which the pIC50 was more than 8.30 at CRTH2 [1] and less than 6.30 against CRTH2 [2].
In the case of `Cc1c(Sc2ccc(S(=O)(=O)N3CCCC3)cc2)c2c(n1CC(=O)O)CC(C)(C)CC2=O` [Example I-42, 2-(2,6,6-trimethyl-4-oxo-3-(4-(pyrrolidin-1-ylsulfonyl)phenylthio)-4,5,6,7-tetrahydro-1H-indol-1-yl)acetic acid], the figures for the pIC50 against CRTH2 [1] and on CRTH2 [2] were 6.30 to 7.00 and less than 6.30, respectively.
With `Cc1c(Cc2ccc(S(=O)(=O)NC3CC3)cc2)c2c(n1CC(=O)O)CCCC2` [Example I-8, 2-(3-(4-(N-Cyclopropylsulfamoyl)benzyl)-2-methyl-4,5,6,7-tetrahydro-1H-indol-1-yl)acetic acid], the pIC50 against CRTH2 [1] was more than 8.30; at CRTH2 [2] it was 7.00 to 8.30.
On to `Cc1c(Cc2ccc(S(=O)(=O)N3CCOCC3)cc2)c2c(n1CC(=O)O)CC(C)(C)CC2=O` [Example I-45, 2-(2,6,6-trimethyl-3-(4-(morpholinosulfonyl)benzyl)-4-oxo-4,5,6,7-tetrahydro-1H-indol-1-yl)acetic acid], for which the pIC50 against CRTH2 [1] and against CRTH2 [2] was less than 6.30 each time.
Consider `Cc1c(Cc2ccccc2S(=O)(=O)N2CCOCC2)c2c(n1CC(=O)O)C(C)(C)CCC2` [Example I-36, 2-(2,7,7-trimethyl-3-(2-(morpholinosulfonyl)benzyl)-4,5,6,7-tetrahydro-1H-indol-1-yl)acetic acid], for which the pIC50 against CRTH2 [1] is more than 8.30; against CRTH2 [2], 7.00 to 8.30.
Turning to `Cc1c(Cc2ccc(S(=O)(=O)N3CCCCC3)cc2)c2c(n1CC(=O)O)CCC(C)(C)C2` [Example I-13, 2-(2,5,5-Trimethyl-3-(4-(piperidin-1-ylsulfonyl)benzyl)-4,5,6,7-tetrahydro-1H-indol-1-yl)acetic acid], the figures for the pIC50 against CRTH2 [1] and at CRTH2 [2] were more than 8.30 and 6.30 to 7.00, respectively.
As to `CCOC(=O)N1CCN(S(=O)(=O)c2ccc(Cc3c4c(n(CC(=O)O)c3C)CCCC4)cc2)CC1` [Example I-5, 2-(3-(4-(4-(Ethoxycarbonyl)piperazin-1-ylsulfonyl)benzyl)-2-methyl-4,5,6,7-tetrahydro-1H-indol-1-yl)acetic acid], the negative logarithm of the IC50 (pIC50) at CRTH2 [1] was more than 8.30; against CRTH2 [2], 7.00 to 8.30.
`Cc1c(Cc2ccccc2S(=O)(=O)N2CCOCC2)c2c(n1[C@@H](C)C(=O)O)CCC(C)(C)C2` [Example I-34, (S)-2-(2,5,5-trimethyl-3-(2-(morpholinosulfonyl)benzyl)-4,5,6,7-tetrahydro-1H-indol-1-yl)propanoic acid]: the figures for the pIC50 at CRTH2 [1] and at CRTH2 [2] were 7.00 to 8.30 and less than 6.30, respectively.
On to `Cc1c(Cc2ccc(S(=O)(=O)N3CCOCC3)cc2)c2c(n1CC(=O)O)CCCC2` [Example I-6, 2-(2-Methyl-3-(4-(morpholinosulfonyl)benzyl)-4,5,6,7-tetrahydro-1H-indol-1-yl)acetic acid], for which the pIC50 was more than 8.30 on CRTH2 [1] and 6.30 to 7.00 on CRTH2 [2].
On the same counts, the results for `Cc1c(Cc2ccccc2S(=O)(=O)N2CCCC2)c2c(n1CC(=O)O)CCC(C)(C)C2` [Example I-14, 2-(2,5,5-Trimethyl-3-(2-(pyrrolidin-1-ylsulfonyl)benzyl)-4,5,6,7-tetrahydro-1H-indol-1-yl)acetic acid] are more than 8.30 and 7.00 to 8.30.
On the same counts, the results for `Cc1c(Cc2ccccc2S(=O)(=O)c2ccccc2)c2c(n1CC(=O)O)CC(C)(C)CC2=O` [Example I-48, 2-(2,6,6-trimethyl-4-oxo-3-(2-(phenylsulfonyl)benzyl)-4,5,6,7-tetrahydro-1H-indol-1-yl)acetic acid] are more than 8.30 and more than 8.30.
`Cc1c(Cc2ccc(S(=O)(=O)NC(C)C(C)(C)C)cc2)c2c(n1CC(=O)O)CCCC2` (centres unmarked) [Example I-3, 2-(3-(4-(N-(3,3-Dimethylbutan-2-yl)sulfamoyl)benzyl)-2-methyl-4,5,6,7-tetrahydro-1H-indol-1-yl)acetic acid]: the pIC50 was more than 8.30 on CRTH2 [1] and 7.00 to 8.30 against CRTH2 [2].
`CCOC(=O)Cn1c(C)c(Cc2ccccc2S(=O)(=O)c2ccccc2)c2c1CC(C)(C)CC2=O` [Example I-63, Ethyl 2-(2,6,6-trimethyl-4-oxo-3-(2-(phenylsulfonyl)benzyl)-4,5,6,7-tetrahydro-1H-indol-1-yl)acetate]: the pIC50 against CRTH2 [1] and at CRTH2 [2] was 6.30 to 7.00 in each case.
With `Cc1c(Cc2ccccc2S(=O)(=O)c2ccccc2)c2c(n1CC(=O)O)CCCC2` [Example I-7, 2-(2-methyl-3-(2-(phenylsulfonyl)benzyl)-4,5,6,7-tetrahydro-1H-indol-1-yl)acetic acid], the pIC50 was more than 8.30 against CRTH2 [1] and 7.00 to 8.30 at CRTH2 [2].
In the case of `Cc1c(Cc2ccc(S(=O)(=O)N3CCCC3)cc2)c2c(n1CC(=O)O)CC(C)(C)CC2=O` [Example I-44, 2-(2,6,6-trimethyl-4-oxo-3-(4-(pyrrolidin-1-ylsulfonyl)benzyl)-4,5,6,7-tetrahydro-1H-indol-1-yl)acetic acid], the pIC50 against CRTH2 [1] and against CRTH2 [2] was less than 6.30 throughout.
`Cc1c(Cc2ccc(S(=O)(=O)NC(C)C)cc2)c2c(n1CC(=O)O)CCCC2` [Example I-10, 2-(3-(4-(N-Isopropylsulfamoyl)benzyl)-2-methyl-4,5,6,7-tetrahydro-1H-indol-1-yl)acetic acid]: the pIC50 was more than 8.30 at CRTH2 [1] and 6.30 to 7.00 against CRTH2 [2].
For `Cc1c(Cc2ccccc2S(=O)(=O)N2CCOCC2)c2c(n1CC(=O)O)CCC(F)(F)C2` [Example I-39, 2-(5,5-difluoro-2-methyl-3-(2-(morpholinosulfonyl)benzyl)-4,5,6,7-tetrahydro-1H-indol-1-yl)acetic acid], the pIC50 at CRTH2 [1] and against CRTH2 [2] was more than 8.30 each time.
On to `Cc1c(Sc2ccc(S(=O)(=O)N3CCOCC3)cc2)c2c(n1CC(=O)O)CC(C)(C)CC2=O` [Example I-41, 2-(2,6,6-trimethyl-3-(4-(morpholinosulfonyl)phenylthio)-4-oxo-4,5,6,7-tetrahydro-1H-indol-1-yl)acetic acid], for which the pIC50 is 6.30 to 7.00 at CRTH2 [1] and less than 6.30 against CRTH2 [2].
Consider `CCOC(=O)N1CCN(S(=O)(=O)c2ccc(Cc3c4c(n(CC(=O)O)c3C)CCC(C)(C)C4)cc2)CC1` [Example I-12, 2-(3-(4-(4-(Ethoxycarbonyl)piperazin-1-ylsulfonyl)benzyl)-2,5,5-trimethyl-4,5,6,7-tetrahydro-1H-indol-1-yl)acetic acid], for which the pIC50 was more than 8.30 at CRTH2 [1] and 7.00 to 8.30 against CRTH2 [2].
